Assay results from US12570607B2, “Compound as cyclin-dependent kinase 9 inhibitor and use thereof” (CSPC Zhongqi Pharmaceutical Technology (Shijiazhuang) Co., …, priority 2019, dated 2026).
pIC50: −log10 of the molar value.

The molecules below were run on MV4;11 cells (assay: In vitro MV4;11 cell proliferation inhibition (MTT method)). Conditions: Homo sapiens.
Format: cell-based
From the text: The in vitro inhibitory effect of the synthesized compounds on cell proliferation was investigated.
The trade name of MTT was thiazole blue, which was a tetrazolium salt of a dye that could accept hydrogen atoms. […] Dimethyl sulfoxide could dissolve blue-purple complexes in cells, and its light absorption value could be measured at 490-550 nm wavelength with an enzyme-linked immunosorbent detector, which could indirectly reflect the number of cells. Within a certain range of the cell number, the amount of MTT crystals formed was proportional to the number of cells. The drug to be tested was successively diluted to different concentrations and added to a 96-well plate. The OD value was determined after the drug acted for a certain time. The size of the OD value could reflect the number of living cells, and its IC50 value was calculated with SPSS19.0.
Suspension of cells: Cells were […] by centrifugation and counted. A certain density of cell suspension was formulated with a complete culture medium, blown evenly, inoculated on a 96-well plate, 100 μL per well, and then cultured in a CO2 incubator.
An appropriate amount of the drug was added to a calculated amount of DMSO and dissolved. The resulting mixture was dispensed and stored at −20° C. The formulation concentration was 10 mM.
The stock solution of the compound having a concentration of 10 mM was diluted into different concentrations (8 concentrations) of solutions of the compound in DMSO (3-fold dilution, 20×final concentration). Each concentration of solutions (10 μL) of the compound in DMSO was respectively diluted with cell culture media (90 μL) to formulate working solutions (2×final concentration). Each concentration of working solutions (100 μL) of the compound was added to the 96-well plate inoculated with cells (1×final concentration, the highest final concentration is 1000 nM). The resulting plate continued to be cultured in a CO2 incubator.
The 96-well plate was taken out, and the density of cells was observed under a microscope. The test was performed with the MTT method.
MTT method: 20 μL of MTT was added to each well; the plate was cultured for about 4 hours in the incubator; the liquid in the well was discarded; 150 μL of DMSO was added into each well; the plate was placed in a shaker and shaken for 5-10 minutes, and the test was performed with a microplate reader at a wavelength of 550 nm. 7. Data analysis: IC50 value of the drug was calculated with SPSS19.0 statistical software.

| pIC50 | Structure (SMILES) |
| --- | --- |
| 6.92 | COc1cc(F)ccc1-c1cc(NC(=O)C2CCCC(NC(C)=O)C2)ncc1F (stereo not drawn) [Compound 3] |
| 6.75 | COc1c(-c2cc(NC(=O)[C@H]3CCC[C@@H](NC(C)=O)C3)ncc2F)ccc(F)c1F [Compound 6] |
| 7.35 | CC(=O)N[C@@H]1CCC[C@H](C(=O)Nc2cc(-c3ccc(F)cc3OC(C)C)c(F)cn2)C1 [Compound 8] |
| 8.05 | COc1cc(O)ccc1-c1cc(NC(=O)[C@H]2CCC[C@@H](NC(C)=O)C2)ncc1F [Compound 15] |
| 7.60 | COc1ccccc1-c1cc(NC(=O)[C@H]2CCC[C@@H](NC(C)=O)C2)ncc1F [Compound 17] |
| 7.59 | CC(=O)N[C@@H]1CCC[C@H](C(=O)Nc2cc(-c3cccc4ccoc34)c(F)cn2)C1 [Compound 19] |
| 7.17 | CC(=O)N[C@@H]1CCC[C@H](C(=O)Nc2cc(-c3ccc(F)nc3F)c(F)cn2)C1 [Compound 20] |
| 7.44 | CC(=O)N[C@@H]1CCC[C@H](C(=O)Nc2cc(-c3cccc4[nH]ccc34)c(F)cn2)C1 [Compound 22] |
| 7.64 | CC(=O)N[C@@H]1CCC[C@H](C(=O)Nc2cc(-c3ccnc4[nH]ccc34)c(F)cn2)C1 [Compound 23] |
| 6.92 | CC(=O)N[C@@H]1CCC[C@H](C(=O)Nc2cc(-c3ccnc4c3ccn4C)c(F)cn2)C1 [Compound 24] |
| 7.47 | COc1cc(F)ccc1-c1cc(NC(=O)[C@H]2CCC[C@@H](NS(C)(=O)=O)C2)ncc1F [Compound 25] |
| 7.05 | COc1cc(F)c(F)cc1-c1cc(NC(=O)[C@H]2CCC[C@@H](NS(C)(=O)=O)C2)ncc1F [Compound 26] |
| 7.96 | COc1cc(F)ccc1-c1cc(NC(=O)[C@H]2CCC[C@@H](NC(=O)CC#N)C2)ncc1F [Compound 32] |
| 7.68 | COc1cc(F)ccc1-c1cc(NC(=O)[C@H]2CCC[C@@H](NC(=O)C3(C#N)CCC3)C2)ncc1F [Compound 34] |
| 7.49 | COc1cc(F)ccc1-c1cc(NC(=O)[C@H]2CCC[C@@H](NC(=O)C3(C#N)CCOCC3)C2)ncc1F [Compound 35] |
| 7.36 | COC(=O)N[C@@H]1CCC[C@H](C(=O)Nc2cc(-c3ccc(F)cc3OC)c(F)cn2)C1 [Compound 36] |
| 7.28 | CNC(=O)N[C@@H]1CCC[C@H](C(=O)Nc2cc(-c3ccc(F)cc3OC)c(F)cn2)C1 [Compound 37] |
| 8.00 | COc1cc(F)ccc1-c1cc(NC(=O)[C@H]2CCC[C@@H](NC(=O)N(C)C)C2)ncc1F [Compound 38] |
| 8.10 | COc1cc(F)ccc1-c1cc(NC(=O)[C@H]2CCC[C@@H](NC(=O)CN(C)C)C2)ncc1F [Compound 40] |
| 7.35 | COc1cc(F)ccc1-c1cc(NC(=O)[C@H]2CCC[C@@H](NC(=O)Nc3cc(C)no3)C2)ncc1F [Compound 41] |
| 7.77 | COc1cc(F)ccc1-c1cc(NC(=O)[C@H]2CCC[C@@H](NC(=O)C(F)(F)F)C2)ncc1F [Compound 42] |
| 7.66 | COc1cc(F)ccc1-c1cc(NC(=O)[C@H]2CCC[C@@H](NC(=O)c3ccccn3)C2)ncc1F [Compound 43] |
| 7.77 | CCOCC(=O)N[C@@H]1CCC[C@H](C(=O)Nc2cc(-c3ccc(F)cc3OC)c(F)cn2)C1 [Compound 46] |
| 7.89 | COc1cc(F)ccc1-c1cc(NC(=O)[C@H]2CCC[C@@H](NC(=O)COC(C)=O)C2)ncc1F [Compound 47] |
| 7.59 | COc1cc(F)ccc1-c1cc(NC(=O)[C@H]2CCC[C@@H](NC(=O)[C@H](C)O)C2)ncc1F [Compound 48] |

| pIC50 | Structure (SMILES) |
| --- | --- |
| 7.14 | COc1cc(F)ccc1-c1cc(NC(=O)[C@H]2CCC[C@@H](NC(=O)[C@@H](C)O)C2)ncc1F [Compound 49] |
| 7.43 | COc1cc(F)ccc1-c1cc(NC(=O)[C@H]2CCC[C@@H](NC(=O)CCO)C2)ncc1F [Compound 50] |
| 7.89 | COc1cc(F)ccc1-c1cc(NC(=O)[C@H]2CCC[C@@H](NC(=O)C3(O)CC3)C2)ncc1F [Compound 51] |
| 8.10 | COc1cc(F)ccc1-c1cc(NC(=O)[C@H]2CCC[C@@H](NC(=O)C3COC3)C2)ncc1F [Compound 52] |
| 8.00 | COc1cc(F)ccc1-c1cc(NC(=O)[C@H]2CCC[C@@H](NC(=O)C3(C)CC3)C2)ncc1F [Compound 53] |
| 7.92 | COc1cc(F)ccc1-c1cc(NC(=O)[C@H]2CCC[C@@H](NC(=O)C3(F)CC3)C2)ncc1F [Compound 54] |
| 7.85 | COc1cc(F)ccc1-c1cc(NC(=O)[C@H]2CCC[C@@H](NC(=O)C3(C(F)(F)F)CC3)C2)ncc1F [Compound 55] |
| 7.70 | COc1cc(F)ccc1-c1cc(NC(=O)[C@H]2CCC[C@@H](NC(=O)CN)C2)ncc1F [Compound 56] |
| 7.00 | COc1cc(F)ccc1-c1cc(NC(=O)[C@H]2CCC[C@@H](NC(=O)CNC(C)=O)C2)ncc1F [Compound 57] |
| 7.07 | COc1cc(F)ccc1-c1cc(NC(=O)[C@H]2CCC[C@@H](NC(=O)[C@H](CC(C)C)NC(C)=O)C2)ncc1F [Compound 58] |
| 8.22 | COc1cc(F)ccc1-c1cc(NC(=O)[C@H]2CCC[C@@H](NC(=O)[C@@H](CC(C)C)NC(C)=O)C2)ncc1F [Compound 59] |
| 7.92 | COc1cc(F)ccc1-c1cc(NC(=O)[C@H]2CCC[C@@H](NC(=O)C3CCN(C)CC3)C2)ncc1F [Compound 60] |
| 7.32 | COc1cc(F)ccc1-c1cc(NC(=O)[C@H]2CCC[C@@H](NC(=O)CC3CC3)C2)ncc1F [Compound 61] |
| 8.22 | COc1cc(F)ccc1-c1cc(NC(=O)[C@H]2CCC[C@@H](NC(=O)C3CC3)C2)ncc1F [Compound 62] |
| 7.02 | COc1cc(F)ccc1-c1cc(NC(=O)[C@H]2CCC[C@@H](NC(=O)C(=O)C3CC3)C2)ncc1F [Compound 63] |
| 8.05 | C=CC(=O)N[C@@H]1CCC[C@H](C(=O)Nc2cc(-c3ccc(F)cc3OC)c(F)cn2)C1 [Compound 64] |
| 8.22 | C#CC(=O)N[C@@H]1CCC[C@H](C(=O)Nc2cc(-c3ccc(F)cc3OC)c(F)cn2)C1 [Compound 65] |
| 7.47 | COc1cc(F)ccc1-c1cc(NC(=O)[C@H]2CCC[C@@H](NC(=O)/C=C/CN(C)C)C2)ncc1F [Compound 66] |
| 7.55 | COc1cc(F)ccc1-c1cc(NC(=O)[C@H]2CCC[C@@H](Nc3nccs3)C2)ncc1F [Compound 69] |
| 6.59 | COc1cc(F)ccc1-c1cc(NC(=O)N2CCC[C@@H](NC(C)=O)C2)ncc1F [Compound 70] |
| 7.80 | COc1cc(F)ccc1-c1cc(NC(=O)[C@H]2CCC[C@@H](NC(C)=O)C2)ncc1Cl [Compound 71] |
| 7.68 | COc1cc(F)ccc1-c1cc(NC(=O)[C@H]2CCC[C@@H](NC(=O)C3(C#N)CN(C)C3)C2)ncc1F [Compound 77] |
| 7.17 | COc1cc(F)ccc1-c1cc(NC(=O)[C@H]2CCC[C@@H](NC(=O)CS)C2)ncc1F [Compound 81] |
| 7.68 | COc1cc(F)ccc1-c1cc(NC(=O)[C@H]2CCC[C@@H](NC(=O)C3(C#N)CCN(C)CC3)C2)ncc1F [Compound 82] |
| 7.85 | COc1cc(F)ccc1-c1cc(NC(=O)[C@H]2CCC[C@@H](NC(=O)C(C)(C)O)C2)ncc1F [Compound 83] |

The molecules below were run against hERG channel (Homo sapiens (Human), UniProt Q12809) (assay: In vitro hERG inhibitory activity, whole-cell patch-clamp on CHO-K1 cell line stably expressing the hERG channel). Conditions: not given.
hERG channel, sequence (Q12809 whole entry): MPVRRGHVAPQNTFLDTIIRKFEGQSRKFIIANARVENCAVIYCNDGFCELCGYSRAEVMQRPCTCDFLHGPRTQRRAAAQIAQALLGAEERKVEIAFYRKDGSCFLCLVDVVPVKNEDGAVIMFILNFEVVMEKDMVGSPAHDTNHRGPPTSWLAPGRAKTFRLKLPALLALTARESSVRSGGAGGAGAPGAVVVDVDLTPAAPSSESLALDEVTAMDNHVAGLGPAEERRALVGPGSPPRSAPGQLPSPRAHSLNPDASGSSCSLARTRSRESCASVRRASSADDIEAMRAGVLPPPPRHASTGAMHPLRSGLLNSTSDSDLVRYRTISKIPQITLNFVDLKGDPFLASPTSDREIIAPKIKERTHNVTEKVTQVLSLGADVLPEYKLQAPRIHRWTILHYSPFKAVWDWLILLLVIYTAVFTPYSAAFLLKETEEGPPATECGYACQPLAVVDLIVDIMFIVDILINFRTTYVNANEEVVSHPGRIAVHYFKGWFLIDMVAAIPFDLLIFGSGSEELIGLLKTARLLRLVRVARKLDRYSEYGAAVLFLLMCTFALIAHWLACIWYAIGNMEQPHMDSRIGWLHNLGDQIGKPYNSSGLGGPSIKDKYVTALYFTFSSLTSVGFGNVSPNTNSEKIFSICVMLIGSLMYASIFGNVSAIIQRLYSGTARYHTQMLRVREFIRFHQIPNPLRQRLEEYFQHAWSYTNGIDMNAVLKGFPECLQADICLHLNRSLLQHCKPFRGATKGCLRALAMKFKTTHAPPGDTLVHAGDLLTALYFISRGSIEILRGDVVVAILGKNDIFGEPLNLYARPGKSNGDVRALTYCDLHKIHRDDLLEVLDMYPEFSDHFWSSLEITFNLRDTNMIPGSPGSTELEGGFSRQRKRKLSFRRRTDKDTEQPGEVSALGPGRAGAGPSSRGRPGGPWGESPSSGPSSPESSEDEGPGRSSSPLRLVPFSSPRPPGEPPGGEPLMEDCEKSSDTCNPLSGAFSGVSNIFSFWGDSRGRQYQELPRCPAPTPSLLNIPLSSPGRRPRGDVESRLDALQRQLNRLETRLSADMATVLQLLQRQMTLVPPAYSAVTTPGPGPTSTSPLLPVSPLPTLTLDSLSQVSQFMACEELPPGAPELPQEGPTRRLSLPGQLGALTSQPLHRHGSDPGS
From the text: Rapid delayed rectifier current (IKr) was mainly mediated by the hERG ion channel and involved in human cardiomyocyte repolarization. Inhibition of IKr was the leading cause of the clinical QT interval prolongation syndrome, even acute cardiac dysrhythmia, and even sudden death. By utilizing a whole-cell patch-clamp technology, the blocking effect of a compound on the hERG channel was detected on a CHO-K1 cell line stably expressing the hERG channel, and the half inhibition concentration IC50 of the compound was determined. It was used as a part of the comprehensive cardiac safety assessment, and it was initially evaluated in the safety in vitro screen for cardiotoxicity.
This assay included the following aspects: • The hERG current was recorded on the CHO-K1 cell line stably expressing the hERG channel by utilizing the manual patch-clamp technology; • The inhibition rate at each concentration was calculated according to the hERG tail current; • The measurement was performed at 5 concentrations for each compound to calculate the IC50 value; • 3 cells were tested at each concentration; • One positive control drug was provided.
The hERG current was recorded by utilizing a whole-cell patch-clamp technology. The cell suspension was added to a dish, and the dish was placed on the object stage of an upright microscope. After adhesion of the cells, perfusion was performed with an extracellular fluid at a flow rate of […]. A glass microelectrode was pulled with a microelectrode puller via a two-step process and the pipette rip resistance was between 2-5 MΩ. After the whole-cell record was set up, the clamp potential was held at −80 mV. The cells were depolarized to +60 mV by applying a voltage stimulus and then repolarized to −50 mV to elicit the hERG tail current. All recordation was conducted after the current became stable. The extracellular perfusion administration was started from the lowest concentration, staying for 5-10 min at each concentration until the current was stable, and then conducted with the next concentration.

| Structure (SMILES) | pIC50 |
| --- | --- |
| COc1cc(F)ccc1-c1cc(NC(=O)C2CCCC(NC(C)=O)C2)ncc1F (stereo not drawn) [Compound 3] | < 4.52 |
| CC(=O)N[C@@H]1CCC[C@H](C(=O)Nc2cc(-c3ccc(F)cc3OC(C)C)c(F)cn2)C1 [Compound 8] | < 4.52 |
| COc1ccccc1-c1cc(NC(=O)[C@H]2CCC[C@@H](NC(C)=O)C2)ncc1F [Compound 17] | < 4.52 |
| CC(=O)N[C@@H]1CCC[C@H](C(=O)Nc2cc(-c3cccc4ccoc34)c(F)cn2)C1 [Compound 19] | < 4.52 |
| COc1cc(F)ccc1-c1cc(NC(=O)[C@H]2CCC[C@@H](NS(C)(=O)=O)C2)ncc1F [Compound 25] | < 4.52 |
| COc1cc(F)ccc1-c1cc(NC(=O)[C@H]2CCC[C@@H](NC(=O)CC#N)C2)ncc1F [Compound 32] | < 4.52 |
| COC(=O)N[C@@H]1CCC[C@H](C(=O)Nc2cc(-c3ccc(F)cc3OC)c(F)cn2)C1 [Compound 36] | < 4.52 |
| CNC(=O)N[C@@H]1CCC[C@H](C(=O)Nc2cc(-c3ccc(F)cc3OC)c(F)cn2)C1 [Compound 37] | < 4.52 |
| COc1cc(F)ccc1-c1cc(NC(=O)[C@H]2CCC[C@@H](NC(=O)c3ccccn3)C2)ncc1F [Compound 43] | < 4.52 |
| COc1cc(F)ccc1-c1cc(NC(=O)[C@H]2CCC[C@@H](NC(=O)[C@H](C)O)C2)ncc1F [Compound 48] | < 4.52 |
